Assay results from patent US7323601B2, “Enanitomers of unsaturated alkyllysophosphonocholines and use as anti-neoplastics” (Research Foundation of the City University of New York, priority 2001, dated 2008).

Tests used:
[1] = system: MCF-7 breast epithelial cancer cell line; assay: Proliferation of log-phase cells, MCF-7; assay type: cell-based; details: 48 h incubation, 10% FBS-supplemented medium, read-out: IC50 values (drug concentration required to reduce cell growth by 50%)
Method: (§1) All the cell lines were grown from frozen stocks originally obtained from ATCC. T47D, MDA-MB-468 and MCF-7 (breast cancer cell lines) were grown in DMEM. SK-N-MC and SK-N-SH (neuroblastoma) were grown in minimum essential medium with non-essential amino acids and Earle's balanced salt solution. All media were supplemented with 10% FBS and antibiotics (Ashagbley, A., Samadder, P., Bittman, R., Erukulla, R. K., Byun, H-S., Arthur, G. (I 996) Anticancer Res. 16, 1813-1818).
(§2) The effect of the ET-16-phosphono-TDBs on cell proliferation was conducted as previously described (Ashagbley, A., Samadder, P., Bittman, R., Erukulla, R. K., Byun, H-S., Arthur, G. (1996) Anticancer Res. 16, 1813-1818; and Lu, X., and Arthur, G. (1992) Cancer Res. 52, 2806-2812). The cells were seeded in 24-well dishes at a density of 20,000 cells/well with 10% FBS-supplemented medium. The cell numbers were monitored daily. […] The cell numbers at the time of addition of the drugs were determined with a Coulter ZM counter. After 48 h incubation, the cell numbers were determined and the increase in cell number over the numbers at the time of the addition of the drugs was determined and expressed as a function of the control cells which received no drug. The viability of the cells was assessed by the ability to exclude trypan blue dye.

MAP kinase = MAP kinase phosphorylation in stimulated MCF-7 cells (Western blot); assay type: cell-based; details: 15 μM preincubation 3 h; insulin- and EGF-stimulated MCF-7 cells
Method: (§3) Quiescent MCF-7 cells were preincubated with (“+” in FIGS. 6-8) or without (“−” in FIGS. 6-8) 15 μM of the R or S enantiomer of ET-16-phosphono-TDB (TDB-PC in FIGS. 7-9) in DMEM supplemented with BSA (0.5 mg/mL) for 3 h. The cells were washed twice and stimulated with […] growth factor (EGF) or insulin for various periods. At the end of the incubation, the medium was aspirated, and the cells washed with ice-cold PBS and scraped into ice cold buffer comprising 20 mM Tris-HCl (pH 7.4) 2 mM EGTA, 100 mM β-glycerophosphate, 1 mM Na3VO4, aprotinin (10 μg/mL), leupeptin (10 μg/mL), 0.2 mM aininoethylbenzylsulfonyl fluoride, 0.2 mM benzarnidine, 1 mM dithiothreitol, 1% triton-X-100, and 0.5% NP-40). After ultrasonication, the mixture was centrifuged at 100,000×g for 30 min. The cell lysates were flash frozen and stored at −70° C. until required.
(§4) MAP kinase activity in cell lysates from EGF and insulin-stimulated MCF-7 cells were assessed by Western blot analysis with phospho-specific antibodies according to the instructions provided by the manufacturer (New England Biolabs). PKB/AKT activity in insulin-stimulated MCF-7 cell lysates was also assessed with phospho-specific antibodies by Western blot analysis. Bound antibody was visualized by chemiluminescence using reagents from Boehringer Mannheim and quantitated with a multiimager Fluor S system (BioRad).

PKB/AKT = PKB/AKT phosphorylation in stimulated MCF-7 cells (Western blot); assay type: cell-based; details: 15 μM preincubation 3 h; insulin- and EGF-stimulated MCF-7 cells
Method: as §3, §4

HT29 tumor cell line = assay: Growth inhibition (GI50), HT29; assay type: cell-based, human
[2] = system: SK-N-SH neuroblastoma cell line; assay: Proliferation of log-phase cells, SK-N-SH; assay type: cell-based; details: 48 h incubation, 10% FBS-supplemented medium, read-out: IC50 values (drug concentration required to reduce cell growth by 50%)
Method: as §1, §2

[3] = system: MDA-MB-468 breast epithelial cancer cell line; assay: Proliferation of log-phase cells, MDA-MB-468; assay type: cell-based; details: 48 h incubation, 10% FBS-supplemented medium, read-out: IC50 values (drug concentration required to reduce cell growth by 50%)
Method: as §1, §2

[4] = system: WI-38 normal fibroblast cell line; assay: Growth inhibition (GI50), WI-38; assay type: cell-based; details: WI38 normal cell line (human)
Source text: (§5) For growth inhibitory evaluation, five human tumor cell lines (U937; HT29; A549; MCF7; MCF7/ADR) and two normal fibroblast cell lines (NIH-3T3, murine; WI-38, human) were used. For comparison, the activity of free L-ET18OCH3 and D-ET18OCH3 was examined.

MCF7/ADR tumor cell line = assay: Growth inhibition (GI50), MCF7/ADR; assay type: cell-based, human
[5] = system: normal cell lines as compared to the tumor cell lines; assay: Growth inhibition, normal versus tumor cell lines; assay type: cell-based; details: normal (NIH-3T3, WI-38) versus tumor cell lines
Source text: as §5

U937 tumor cell line = assay: Growth inhibition (GI50), U937; assay type: cell-based, human
[6] = system: SK-N-MC neuroblastoma cell line; assay: Proliferation of log-phase cells, SK-N-MC; assay type: cell-based; details: 48 h incubation, 10% FBS-supplemented medium, read-out: IC50 values (drug concentration required to reduce cell growth by 50%)
Method: as §1, §2

A549 tumor cell line = assay: Growth inhibition (GI50), A549; assay type: cell-based, human
MCF7 tumor cell line = assay: Growth inhibition (GI50), MCF7; assay type: cell-based, human
[7] = system: T47D breast epithelial cancer cell line; assay: Proliferation of log-phase cells, T47D; assay type: cell-based; details: 48 h incubation, 10% FBS-supplemented medium, read-out: IC50 values (drug concentration required to reduce cell growth by 50%)
Method: as §1, §2

[8] = system: NIH-3T3 normal fibroblast cell line; assay: Growth inhibition (GI50), NIH-3T3; assay type: cell-based; details: NIH-3T3 normal cell line (murine)
Source text: as §5

| SMILES | IC50 [1] [µM] | inhibition of phosphorylation of MAP kinase (MAP kinase) | inhibition of phosphorylation of PKB (PKB/AKT) | GI50 (HT29 tumor cell line) [µM] | IC50 [2] [µM] | IC50 [3] [µM] | GI50 [4] [µM] | GI50 (MCF7/ADR tumor cell line) [µM] | selectivity: GI50 values for the normal cell lines as compared to the tumor cell lines [5] | GI50 (U937 tumor cell line) [µM] | IC50 [6] [µM] | GI50 (A549 tumor cell line) [µM] | GI50 (MCF7 tumor cell line) [µM] | IC50 [7] [µM] | GI50 [8] [µM] |
| --- | --- | --- | --- | --- | --- | --- | --- | --- | --- | --- | --- | --- | --- | --- | --- |
| CCCCCCCCCCCCCCCCOC[C@H](C=CP(=O)([O-])OCC[N+](C)(C)C)OC [(S)-ET-16-phosphono-TDB, 2′-(Trimethylammonio)ethyl 4-(hexadecyloxy)-3-(S)-methoxy-1-butenephosphonate] | 1.9 | to a greater extent than the less active R enantiomer | to a greater extent than the less active R enantiomer | 2.8 | 1.8 | 4.2 | 14.4 | > 40 | remarkable selectivity | 1.1 | 2.2 | 9 | 32.4 | 0.9 | 66.3 |
| CCCCCCCCCCCCCCCCOC[C@@H](C=CP(=O)([O-])OCC[N+](C)(C)C)OC [(R)-ET-16-phosphono-TDB, 2′-(Trimethylammonio)ethyl 4-(hexadecyloxy)-3-(R)-methoxy-1-butenephosphonate] | 4.1 |  |  | 5.9 | 2.5 | > 5 | 57.5 | > 40 | remarkable selectivity | 2.2 | > 5 | 15.3 | 35.1 | > 5 | 77.3 |
